Measurements taken from patent US20150093821A1, “BIODEGRADABLE POLYURETHANES AND USE THEREOF” (CARNEGIE MELLON UNIVERSITY, priority 2003, published 2015).

Assays:
[1] = test system: collagen type I in GFP-MBMC; assay: Collagen type I production (Sirius Red F3B); type: cell-based, mouse; details: after 7 days culture, P<0.005
Experimental: Soluble calf skin collagen type I was used for the standard curves run with each assay (see FIG. 14). […] Three individual experiments were performed for type I collagen. The results were presented as the mean±standard deviation (n=3).

[2] = test system: alkaline phosphatase activity of mouse bone cells (OPC); assay: Alkaline phosphatase activity of OPC with bioactive reagents or polymer foams; type: cell-based; details: 4 weeks, OD at 405 nm, medium with or without polymer, FIG. 5
Experimental: Bioactive polymers containing covalently bound dexamethasone and β-glycerophosphate were also synthesized and studied for potential use as bone scaffolds. In several studies, mouse bone cells (OPC) (9.6×10^4/well) were cultured in a 6-well tissue culture plate without polymer foam (blank column) with Dulbecoo's modified Eagle's medium only (DMEM); with 5 mM β-glycerophosphate (β-GP); with 100 nM dexamethasone (Dex); 50 μM ascorbic acid (Vc); with 50 μM ascorbic acid and 5 mM β-glycerophosphate (Vc+β-GP); with 50 μM ascorbic acid and 100 nM dexamethasone (Vc+Dex); with 50 μM ascorbic acid, 100 nM dexamethasone and 5 mM β-glycerophosphate (Vc+Dex+β-GP) for 4 weeks.
The same cells were cultured in a 6-well plate with the LDI-PEG400-glucose polymer (red column) using DMEM only. The polymer foams were synthesized with lysine ethyl ester diisocyanate (LDI), glucose and PEG only (DMEM); with LDI, glucose, PEG and β-glycerophosphate (β-GP); with LDI, glucose, PEG and dexamethasone (Dex); with LDI, glucose, PEG and ascorbic acid (Vc); with LDI, glucose, PEG, ascorbic acid and β-glycerophosphate (Vc+β-GP); with LDI, glucose, PEG, ascorbic acid and dexamethasone (Vc+Dex); and with LDI, glucose, PEG, ascorbic acid, 3-glycerophosphate and dexamethasone (Vc+Dex+β-GP). […] The alkaline phosphatase activity was determined by the OD at 405 nm in the medium with or without polymer. […]

[3] = test system: type I collagen of GFP-MBMC; assay: Western blot analysis for type I collagen; type: cell-based, mouse; details: two weeks of culture
Experimental: After two weeks of culture, the cells were harvested with Trypsin, subjected to a centrifuge and washed once with PBS. Thereafter, the lysis buffer/CLAP solution was added to the cells (Lysis buffer: 0.187 g HEPE, 0.4235 g NaCl, 0.001 g MgCl2 and 0.19 g EGTA dissolved in 50 ml PBS. CLAP solution: 4 μl each of chymostatin, leupeptin, antipain and pepstatin A in 100 μl PBS. Lysis buffer/CLAP solution: 100 μl CLAP solution added to 6.6 ml Lysis buffer). To assure complete rupture of the cells, the tubes were stored at −20° C. for 12 hrs. Total protein concentration was quantified using the BCA protein assay kit (Fisher Scientific, USA), which measured the light absorbance at 562 nm verses a standard curve on a microplate reader.
The protein obtained as described above was re-suspended in Laemmli sample buffer, followed by protein separation on an SDS-10% polyacrylamide gel. Western blotting was performed as described previously. […]
To ensure that equal amount of total protein was loaded to the membrane, GAPDH (glycerealdehyde-3-phosphate dehydrogenase) was detected using rat-anti-mouse GAPDH antibody (ICN Biochemicals, USA) followed by peroxidase-conjugated rabbit-anti-rat IgG antibody (E.Y. Laboratories, Inc. USA). […] Molecular weights of the proteins were determined using prestained molecular weight standards (14,300-200,000 molecular weight range; GIBCO BRL). […]

SMILES	concentration of collagen type I relative to LDI-glycerol-PEG scaffold or tissue culture plate [1]	alkaline phosphatase activity of OPC [2]	type I collagen secreted (Western blotting) [3]
O=C1O[C@H]([C@@H](O)CO)C(O)=C1O [ascorbic acid]	two times higher	significantly increased	higher concentrations
O=P(O)(O)OC(CO)CO [β-glycerophosphate]	–	more moderately	–
